# In PubChem BioAssay (NCI):
#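 48-hour exposure; five concentrations; linearly interpolated endpoints. Here, GI50 denotes the concentration required for 50% inhibition of growth. TGI marks complete inhibition of growth.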
# Experiments:
# Experiment in all cases: inhibition of tumour cell growth, NCI panel, 48 h
# HOP-92 NSCLC = test system: HOP-92 NSCLC
# HCT-116 colon = test system: HCT-116 colon
# UO-31 renal = test system: UO-31 renal
# SNB-19 CNS = test system: SNB-19 CNS
# LOX IMVI melanoma = test system: LOX IMVI melanoma
# NCI-H23 lung = test system: NCI-H23 lung
# SR leukemia = test system: SR leukemia
# 786-0 renal = test system: 786-0 renal
# SF-539 CNS = test system: SF-539 CNS
# PC-3 prostate = test system: PC-3 prostate
Compound,GI50 (HOP-92 NSCLC) [µM],TGI (HOP-92 NSCLC) [µM],GI50 (HCT-116 colon) [µM],TGI (HCT-116 colon) [µM],GI50 (UO-31 renal) [µM],TGI (UO-31 renal) [µM],GI50 (SNB-19 CNS) [µM],TGI (SNB-19 CNS) [µM],GI50 (LOX IMVI melanoma) [µM],TGI (LOX IMVI melanoma) [µM],GI50 (NCI-H23 lung) [µM],TGI (NCI-H23 lung) [µM],GI50 (SR leukemia) [µM],TGI (SR leukemia) [µM],GI50 (786-0 renal) [µM],TGI (786-0 renal) [µM],GI50 (SF-539 CNS) [µM],TGI (SF-539 CNS) [µM],GI50 (PC-3 prostate) [µM],TGI (PC-3 prostate) [µM]
CN1CCN(C)C1c1ccc(C2N(C)CCN2C)cc1,> 100,> 100,17.8,38,> 100,> 100,39.5,> 100,31.3,> 100,45.7,> 100,28.5,> 100,> 100,> 100,35.6,> 100,> 100,> 100
CCCN(CCC)c1ccc(/C=N/NC(=O)c2cccnc2)c(C)c1,11.3,26.2,13.8,29.3,15.6,38.1,16.1,34.1,13.5,27.6,14.4,32.1,8.15,41.7,18.6,42.2,13.8,29.3,16.8,67.7
CC(C)[C@@]12C[C@@H](OC(=O)C3CO3)[C@@](C)(O1)[C@@H]1CC[C@@H](C)[C@H]1[C@@H]2OC(=O)/C=C/c1ccccc1 (some centres undefined),12.4,27.7,23.8,> 100,1.76,5.57,16.6,33.4,17,36.7,17.8,53.8,29.8,> 100,14,29.5,16.4,31.4,17.4,61
Nc1nc(-c2cccnc2)cc(-c2cc(-c3cccnc3)nc(N)n2)n1,–,> 100,–,> 100,–,> 100,–,> 100,–,> 100,–,> 100,–,> 100,–,> 100,–,> 100,–,> 100
COc1cc2c3c(n(CCCN=[N+]=[N-])c(=O)c2cc1OC)-c1ccc([N+](=O)[O-])cc1C3=O,29.8,> 100,> 100,> 100,20,> 100,> 100,> 100,61,> 100,91.1,> 100,4.38,22.9,50.3,> 100,38.9,> 100,> 100,> 100
COc1cc2c3c(n(CCCN=[N+]=[N-])c(=O)c2cc1OC)-c1ccc(F)cc1C3=O,2.27,8.15,4.2,> 100,5.14,> 100,4.35,> 100,4.04,> 100,14.1,> 100,0.449,2.68,2.88,14.7,3.23,12.4,6.63,> 100
O=c1[nH]c(-c2ccc(Cl)c(Cl)c2)cn1-c1ccc(Cl)cc1,15.9,46.3,15.8,34,25.4,60.5,30.1,81.2,36.2,> 100,16.4,37.1,4.64,16.2,20.7,43.9,20.1,54.2,66.9,> 100
Oc1ccc(N=Nc2ccc(Br)cc2)c(O)c1,1.1,6.96,3.25,14.1,2.27,15.6,4,68.8,8.05,61.1,3.22,26.9,0.337,2.54,3.17,23.6,1.93,5.14,3.08,21.7
COc1cc2c(cc1OC)[C@@H]1C(=O)c3ccc4c(c3O[C@@H]1CO2)C[C@H](C(C)C)O4,2.04,22.3,0.0435,> 37.8,3.75,97.9,9.74,> 78.1,0.264,–,0.0416,> 38,1.42,> 23.6,5.6,> 79.8,15,> 53.4,1.98,> 30.5
CCn1nc(C2CCN(C(=O)CCO)CC2)nc1-c1cnc(N)c(-c2nnc(C(C)(C)C)o2)n1,0.208,> 100,18.8,58.7,0.966,51.7,> 100,> 100,3.2,19.8,26.1,> 100,15.5,> 88.4,3.11,> 100,5.74,> 100,3.2,> 100
OCC1OC(N2C=C(c3nc4ccccc4s3)C3C=CC=CC32)C(O)C(O)C1O (centres undefined),9.51,30.2,11.5,42.4,24.8,> 50,22.1,> 50,10.9,26,15.6,> 50,15.9,> 50,17.6,> 50,14.8,40.3,13,> 50
CCCCCCOC(=O)CC1=C(C)/C(=C/c2[nH]c(-c3ccc[nH]3)cc2OC)N=C1C,0.0332,0.351,0.0311,1.05,0.163,0.329,0.271,2.76,0.0218,0.0565,0.101,1.75,0.0307,0.182,0.0829,1.16,0.0635,1.27,0.0487,1.78
